Results on 20 compounds are retold here after patent US9024018B2, “3-substituted-8-substituted-3H-imidazo[5,1-d][1,2,3,5]tetrazin-4-one compounds and their use” (Pharminox Limited, priority 2009, dated 2015).

Common to all, as to assay type: cell-based
The test system of one test is U373V. Put plainly: MTT assay for 7-day toxicity, U373V glioma cells (vector control, MGMT-). The settings on record: 7 day MTT assay, glioma line U373V. As for the experimental part:
(§1) The cell culture techniques were carried out in a Class II microbiological safety cabinet which was swabbed with 70% IMS in distilled water before each use. Glioma cells were routinely cultured in Costar tissue culture flasks in RPMI 1640 liquid medium (containing 0.3 g/L L-glutamine and 2 g/L sodium bicarbonate) supplemented with 10% heat inactivated FBS (55-59° C.) for 1 hour to denature complement proteins which would otherwise evoke a cellular immune response resulting in cell lysis, 1% non-essential amino acids, 50 μg/mL gentamicin and 400 μg/mL G418 (vector selection reagent). Colorectal and melanoma cells were maintained in RPMI 1640 supplemented with 10% FBS. MRC-5 cells were cultured in EMEM+10% FBS, 1% pen/strep, 1% non-essential amino acids, 1% HEPES (1M) and 1% sodium bicarbonate.
(§2) Cells were grown at 37° C. in a humidified incubator in an atmosphere comprising 95% air/5% CO2. Cells were sub-cultured when growth exceeded approximately 80% confluence, normally twice weekly. The medium was aspirated from the flask and approximately 0.8 mL trypsin-EDTA 1× solution added. The cells were re-incubated at 37° C. until they had visibly detached from the flask. The cells were re-suspended in 5 mL medium and 0.5-1 mL was transferred to a new flask (25 cm^2) with 7 mL culture medium. The cells were further incubated at 37° C. To minimize phenotypic drift, cells were disposed of once they had been subcultured 30 times. New batches of cells were thawed rapidly in 37° C. water bath once taken from liquid nitrogen storage and re-suspended in 10 mL of culture medium in a 25 cm^2 flask. Cells were passaged twice to allow normal growth to resume prior to use in experiments.
(§3) Most test compounds, including temozolomide, were prepared as 100 mM stock solutions in DMSO and stored at −20° C. for not more than 6 months.
(§4) MTT Assay for 7-Day Toxicity Assay
(§5) This assay was first described in Mosmann, T., 1983, “Rapid colorimetric assay for cellular growth and survival: Application to proliferation and cytotoxicity assays”, Journal of Immunological Methods, Vol. 65, Nos. 1-2, pp. 55-63.
(§6) Glioma cell lines, SNB19 and U373, both stably transfected with MGMT (i.e., SNB19M and U373M) or their respective vector controls (i.e., SNB19V and U373V); colorectal carcinoma cell lines, HCT116, HT29, and DLD1; melanoma cell line, SKMEL-28; breast cell line, MCF-7; and normal human fetal lung fibroblast cell line, MRC-5; were used at 60-80% confluence, during the logarithmic phase of growth.
(§7) Following harvesting with trypsin/EDTA, cells in suspension were gently syringed through a 23 gauge needle to obtain a near-single cell suspension. Cells were then seeded into 96-well plates at the desired density in 180 μL culture medium if only one test compound was to be added, or in 160 μL if two test compounds were to be added in combination. Cells were allowed to attach overnight by incubation at 37° C. in 95% air/5% CO2. For the 7 day assay, the cell seeding densities for the different cell lines were as follows: SNB19V, SNB19M: 650 cells/well; U373V, U373M: 650 cells/well; SNB19VR, U373VR: 650 cells/well; HCT116, DLD-1, SKMEL-28, MRC-5, MCF-7: 400 cells/well.
(§8) The two peripheral lanes of each plate were used as blank wells (cell free) and filled with 200 μL of medium in order to minimise medium evaporation from the plate. A separate time zero (T0) plate was set up alongside other plates. Serial dilutions in tissue culture medium of a 100 mM stock of test compound were prepared immediately before each assay to ten times the final concentrations required. 20 μL was added to each well (200 μL total media per well) to achieve final concentrations of 0.5 μM, 1 μM, 5 μM, 10 μM, 50 μM, 100 μM, 500 μM, and 1000 μM. A minimum of four wells received the same test compound concentration. To control wells, including those in the T0 plate, 20 μL of medium was added. […]

The subject of another test is SNB19M. Description: MTT assay for 7-day toxicity, SNB19M glioma cells (stably transfected with MGMT, MGMT+). The settings on record: 7 day MTT assay, glioma line SNB19M. How it is done: as §1, §2, §3, §4, §5, §6, §7, §8
A further test concerns U373M. Put plainly: MTT assay for 7-day toxicity, U373M glioma cells (stably transfected with MGMT, MGMT+). As to conditions: 7 day MTT assay, glioma line U373M. As for the experimental part:
as §1, §2, §3, §4, §5, §6, §7, §8

A further test has as its system SNB19V. Description: MTT assay for 7-day toxicity, SNB19V glioma cells (vector control, MGMT-). As to conditions: Glioma cell, 168 h, 7 day MTT assay, glioma line SNB19V. As for the experimental part:
as §1, §2, §3, §4, §5, §6, §7, §8

As to `Cn1nnc2c(-c3nc(-c4ccsc4)cs3)ncn2c1=O` [WW-012, 3-Methyl-8-(4-(thiophen-3-yl)thiazol-2-yl)imidazo[5,1-d][1,2,3,5]tetrazin-4(3H)-one], the GI50 in the test with U373V (Glioma cell, 168 h) is less than 75 µM; with SNB19M (Glioma cell, 168 h), less than 70 µM; with U373M (Glioma cell, 168 h), less than 60 µM; with SNB19V, less than 45 µM.
On the same counts, the results for `C#CCn1nnc2c(-c3nc(-c4cccc(Cl)c4)cs3)ncn2c1=O` [WW-023, 8-(4-(3-Chlorophenyl)thiazol-2-yl)-3-(prop-2-ynyl)imidazo[5,1-d][1,2,3,5]tetrazin-4(3H)-one] are less than 75 µM, less than 70 µM, less than 60 µM and less than 45 µM.
As to `C#CCn1nnc2c(-c3nc(-c4ccsc4)cs3)ncn2c1=O` [WW-024, 3-(Prop-2-ynyl)-8-(4-(thiophen-3-yl)thiazol-2-yl)imidazo[5,1-d][1,2,3,5]tetrazin-4(3H)-one], the GI50 in the test with U373V (Glioma cell, 168 h) was less than 75 µM; in the test on SNB19M (Glioma cell, 168 h), less than 70 µM; with U373M (Glioma cell, 168 h) it was less than 60 µM; in the test with SNB19V, less than 45 µM.
In the case of `C#CCn1nnc2c(-c3nc(-c4ccc(S(C)(=O)=O)cc4)cs3)ncn2c1=O` [WW-025], the concentration for 50% growth inhibition (GI50) was less than 75 µM in the test on U373V (Glioma cell, 168 h); less than 70 µM with SNB19M (Glioma cell, 168 h); less than 60 µM with U373M (Glioma cell, 168 h); less than 45 µM in the test on SNB19V.
As for `C#CCn1nnc2c(-c3nc(-c4ccc5c(c4)OCO5)cs3)ncn2c1=O` [WW-026], the 50% growth inhibitory concentration (GI50) in the test on U373V (Glioma cell, 168 h) was less than 75 µM; in the test with SNB19M (Glioma cell, 168 h), less than 70 µM; in the test on U373M (Glioma cell, 168 h), less than 60 µM; in the test with SNB19V it was less than 45 µM.
For `C#CCn1nnc2c(-c3nc(-c4nccs4)cs3)ncn2c1=O` [WW-028, 8-(2,4′-Bithiazol-2′-yl)-3-(prop-2-ynyl)imidazo[5,1-d][1,2,3,5]tetrazin-4(3H)-one], the 50% growth inhibitory concentration (GI50) was 50 µM in the test with U373V; less than 75 µM in the test with U373V (Glioma cell, 168 h); 56.5 µM in the test on SNB19M; less than 70 µM in the test with SNB19M (Glioma cell, 168 h); 35.1 µM in the test on U373M; less than 60 µM in the test on U373M (Glioma cell, 168 h). Further, the GI50 in the test with SNB19V was 54 µM.
As to `C#CCn1nnc2c(-c3nc(-c4cccs4)cs3)ncn2c1=O` [WW-029, 3-(Prop-2-ynyl)-8-(4-(thiophen-2-yl)thiazol-2-yl)imidazo[5,1-d][1,2,3,5]tetrazin-4(3H)-one], the GI50 in the test on U373V (Glioma cell, 168 h) was less than 75 µM; in the test on SNB19M (Glioma cell, 168 h), less than 70 µM; with U373M (Glioma cell, 168 h) it was less than 60 µM; with SNB19V, less than 45 µM.
With `C[S+]([O-])Cn1nnc2c(-c3nc(-c4ccccc4)cs3)ncn2c1=O` (centres unmarked) [WW-031, 3-(methylsulfinylmethyl)-8-(4-phenylthiazol-2-yl)imidazo[5,1-d][1,2,3,5]tetrazin-4(3H)-one], the GI50 was less than 75 µM in the test on U373V (Glioma cell, 168 h); less than 70 µM in the test on SNB19M (Glioma cell, 168 h); less than 60 µM in the test on U373M (Glioma cell, 168 h); less than 45 µM in the test on SNB19V.
In the case of `C[S+]([O-])Cn1nnc2c(-c3nc(-c4ccsc4)cs3)ncn2c1=O` (centres unmarked) [WW-033, 3-(methylsulfinylmethyl)-8-(4-(thiophen-3-yl)thiazol-2-yl)imidazo[5,1-d][1,2,3,5]tetrazin-4(3H)-one], the concentration for 50% growth inhibition (GI50) in the test with U373V (Glioma cell, 168 h) was less than 75 µM; in the test with SNB19M (Glioma cell, 168 h) it was less than 70 µM; in the test on U373M (Glioma cell, 168 h) it was less than 60 µM; in the test on SNB19V, less than 45 µM.
The corresponding values for `C[S+]([O-])Cn1nnc2c(-c3nc(-c4cccs4)cs3)ncn2c1=O` (centres unmarked) [WW-036, 3-(methylsulfinylmethyl)-8-(4-(thiophen-2-yl)thiazol-2-yl)imidazo[5,1-d][1,2,3,5]tetrazin-4(3H)-one] are less than 75 µM, less than 70 µM, less than 60 µM and less than 45 µM.
On the same counts, the results for `Cn1nnc2c(-c3nc(-c4ccccc4)co3)ncn2c1=O` [WW-037, 3-Methyl-8-(4-phenyloxazol-2-yl)imidazo[5,1-d][1,2,3,5]tetrazin-4(3H)-one] are less than 75 µM, less than 70 µM, less than 60 µM and less than 45 µM.
As for `Cn1nnc2c(-c3ncc(-c4ccccc4)o3)ncn2c1=O` [WW-038, 3-Methyl-8-(5-phenyloxazol-2-yl)imidazo[5,1-d][1,2,3,5]tetrazin-4(3H)-one], the GI50 was less than 75 µM with U373V (Glioma cell, 168 h); less than 70 µM in the test with SNB19M (Glioma cell, 168 h); less than 60 µM in the test on U373M (Glioma cell, 168 h); less than 45 µM in the test with SNB19V.
`C#CCn1nnc2c(-c3nnc(-c4ccccc4)o3)ncn2c1=O` [WW-042, 8-(5-Phenyl-1,3,4-oxadiazol-2-yl)-3-(prop-2-ynyl)imidazo[5,1-d][1,2,3,5]tetrazin-4(3H)-one]: the GI50 is less than 75 µM in the test with U373V (Glioma cell, 168 h); less than 70 µM in the test with SNB19M (Glioma cell, 168 h); less than 60 µM with U373M (Glioma cell, 168 h); less than 45 µM in the test with SNB19V.
The corresponding values for `Cn1nnc2c(-c3ncc[nH]3)ncn2c1=O` [WW-047, 8-(1H-Imidazol-2-yl)-3-methylimidazo[5,1-d][1,2,3,5]tetrazin-4(3H)-one] are less than 75 µM, less than 70 µM, less than 60 µM and less than 45 µM.
`Cn1nnc2c(-c3nc(-c4cccs4)c[nH]3)ncn2c1=O` [WW-048, 3-Methyl-8-(4-(thiophen-2-yl)-1H-imidazol-2-yl)imidazo[5,1-d][1,2,3,5]tetrazin-4(3H)-one]: the GI50 with U373V (Glioma cell, 168 h) was less than 75 µM; with SNB19M (Glioma cell, 168 h), less than 70 µM; with U373M (Glioma cell, 168 h), less than 60 µM; in the test with SNB19V, less than 45 µM.
On the same counts, the results for `Cn1nnc2c(-c3nc(-c4ccccc4)c[nH]3)ncn2c1=O` [WW-049, 3-Methyl-8-(4-phenyl-1H-imidazol-2-yl)imidazo[5,1-d][1,2,3,5]tetrazin-4(3H)-one] are less than 75 µM, less than 70 µM, less than 60 µM and less than 45 µM.
The corresponding values for `C#CCn1nnc2c(-c3nc(-c4ccccc4)c[nH]3)ncn2c1=O` [WW-050, 8-(4-Phenyl-1H-imidazol-2-yl)-3-(prop-2-ynyl)imidazo[5,1-d][1,2,3,5]tetrazin-4(3H)-one] are less than 75 µM, less than 70 µM, less than 60 µM and less than 45 µM.
For `Cn1cc(-c2ccccc2)nc1-c1ncn2c(=O)n(C)nnc12` [WW-051, 3-Methyl-8-(1-methyl-4-phenyl-1H-imidazol-2-yl)imidazo[5,1-d][1,2,3,5]tetrazin-4(3H)-one], the 50% growth inhibitory concentration (GI50) was less than 75 µM in the test on U373V (Glioma cell, 168 h); less than 70 µM with SNB19M (Glioma cell, 168 h); less than 60 µM in the test on U373M (Glioma cell, 168 h); less than 45 µM in the test on SNB19V.
With `C#CCn1nnc2c(-c3nc(-c4ccccc4)cn3C)ncn2c1=O` [WW-052, 8-(1-Methyl-4-phenyl-1H-imidazol-2-yl)-3-(prop-2-ynyl)imidazo[5,1-d][1,2,3,5]tetrazin-4(3H)-one], the GI50 in the test on U373V (Glioma cell, 168 h) is less than 75 µM; in the test on SNB19M (Glioma cell, 168 h), less than 70 µM; in the test with U373M (Glioma cell, 168 h), less than 60 µM; in the test on SNB19V, less than 45 µM.
The corresponding values for `C#CCn1nnc2c(-c3nc4ccccc4o3)ncn2c1=O` [WW-055, 8-(Benzo[d]oxazol-2-yl)-3-(prop-2-ynyl)imidazo[5,1-d][1,2,3,5]tetrazin-4(3H)-one] are less than 75 µM, less than 70 µM, less than 60 µM and less than 45 µM.
